We go through 32 compounds from patent publication US20050250742A1 (Pfizer Inc., priority 2004, published 2005).

For assay [1], the target named is T1, PIN1-CD (catalytic PIN1 domain, devoid of the PIN1 WW domain) (Homo sapiens, UniProt Q13526).
T1 construct: PIN1 peptide containing the catalytic peptidyl-prolyl isomerase domain but devoid of the PIN1 WW domain
Put plainly: Dissociation constant (Kd) with PIN1 catalytic domain. The format is binding. The conditions noted are these: peptide containing the catalytic PIN1 domain. An excerpt: (§1) In Table 1, the Ki data reported under the PIN1—CD heading corresponds to testing with PIN1 peptide containing the catalytic peptidyl-prolyl isomerase domain but devoid of the PIN1 WW domain. Similarly, the dissociation constant (Kd) data under PIN1-CD refers to testing with a peptide containing the catalytic PIN1 domain but devoid of the PIN1 WW domain.

Assay [2] concerns the target T2, PIN1-CD (catalytic peptidyl-prolyl isomerase domain, devoid of the PIN1 WW domain) (Homo sapiens, UniProt Q13526).
T2 construct: PIN1 peptide containing the catalytic peptidyl-prolyl isomerase domain but devoid of the PIN1 WW domain
Kind of assay: Pin1 peptidyl-prolyl isomerase assay (protease-coupled, spectrophotometric). The conditions noted are these: catalytic PPIase domain without WW domain; 15° C., pH 7.5, 100 μM Suc-AEPF-pNA. Format: biochemical.
Source text: PIN1 is a phosphorylation dependent peptidyl-prolyl isomerase. The PIN1 assay is a spectrophotometric assay based on the coupled chymotrypsin or subtilisin catalyzed, cis-trans conformation dependent cleavage of a para-nitroanaline containing peptide substrate. […] Cleavage of the isomerized peptide releases para-nitroanaline, which can be monitored by an increase in absorbance at 390 nm. The PIN1 peptide substrate, succinyl-[…]-proline-phenylalanine-paranitroaniline (Suc-AEPF-pNA) (Bachem), is kept in a predominantly cis conformation with an anhydrous TFE/LiCl solvent mixture.
Upon dilution into an aqueous assay mixture containing PIN1, the peptide substrate undergoes PIN1 catalyzed isomerization to the trans conformation. […] To minimize the spontaneous isomerization of the peptide substrate, reactions are performed at 15° C. A typical reaction contains 25 mM MOPS pH 7.5, 0.5 mM TCEP, 2% DMSO, 5 μl of a 25 mg/ml solution of subtilisin Carlsberg, 50 nM PIN1-PPiase, and 100 μM Suc-AEPF-pNA peptide substrate. Reactions are cooled to 15° C. and initiated with the addition of Suc-AEPF-pNA. The absorbance at 390 nm is monitored continuously until all substrate has been converted to the cleaved product. […] The rate constant k is linearly proportional to the concentration of active enzyme present in the assay mixture once the rate constant for the spontaneous isomerization is subtracted. […] Therefore, during inhibition experiments, the IC50, for non-tight binding inhibitors, is essentially the inhibition constant Ki.
as §1

Bounds are passed on as bounds.

T2 sequence (Q13526 52-163 limits assumed): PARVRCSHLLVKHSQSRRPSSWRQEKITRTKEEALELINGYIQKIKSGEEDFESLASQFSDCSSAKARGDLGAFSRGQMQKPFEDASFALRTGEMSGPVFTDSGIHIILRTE
T1 sequence (Q13526 52-163 limits assumed): as above

For the compound `O=C(N[C@@H](COP(=O)(O)O)Cc1ccccc1)c1ccccc1O` [Example 25-13, Phosphoric acid mono-(2-{[1-(2-hydroxy-phenyl)-methanoyl]-amino}-3-phenyl-propyl)ester], the Kd (as a rule, a measure of binding affinity in units of concentration) in assay [1] is less than 10000 nM.

For the compound `CC(=O)OCOP(=O)(OCOC(C)=O)OC[C@@H](Cc1cccc(F)c1)NC(=O)c1cc2ccccc2s1` [Example 85, Acetic acid acetoxymethoxy-[(R)-2-[(1-benzo[b]thiophen-2-yl-methanoyl)-amino]-3-(3-fluoro-phenyl)-propoxy]-phosphoryloxymethyl ester], the Ki – broadly, a measure of affinity in units of concentration, obtained from inhibition or displacement – in assay [2] was less than 100000 nM.

For the compound `CC(C)C(=O)N[C@@H](COP(=O)(O)O)Cc1ccccc1` [Example 25-15], the Ki in assay [2] was less than 10000 nM.

Consider `O=C(N[C@@H](COP(=O)(O)O)Cc1ccccc1)c1ccc2cc(O)ccc2c1` [Example 25-20, Phosphoric acid mono-(2-{[1-(6-hydroxy-naphthalen-2-yl)-methanoyl]-amino}-3-phenyl-propyl)ester], for which the Kd in assay [1] is less than 1000 nM.

For `O=C(N[C@@H](COP(=O)(O)O)Cc1ccccc1)c1cc2ccccc2cc1O` [Example 25-22, Phosphoric acid mono-(2-{[1-(3-hydroxy-naphthalen-2-yl)-methanoyl]-amino}-3-phenyl-propyl)ester], the Kd in assay [1] was less than 1000 nM.

Regarding `O=C(N[C@@H](COP(=O)(O)O)Cc1ccccc1)c1ccc(Oc2cc(Cl)cc(Cl)c2)o1` [Example 25-4, Phosphoric acid mono-[2-({1-[5-(3,5-dichloro-phenoxy)-furan-2-yl]-methanoyl}-amino)-3-phenyl-propyl]ester], in assay [1], the Kd is less than 1000 nM.

Turning to `O=C(N[C@@H](COP(=O)(O)O)Cc1ccccc1)c1sccc1Cl` [Example 25-12], the Kd in assay [1] is less than 1000 nM.

In assay [1], `O=C(N[C@@H](COP(=O)(O)O)Cc1ccccc1)c1cc2ccccc2o1` [Example 25-19, Phosphoric acid mono-{2-[(1-benzofuran-2-yl-methanoyl)-amino]-3-phenyl-propyl}ester] registered a Kd of less than 1000 nM.

In turn, `Cc1nn(-c2ccccc2)nc1C(=O)N[C@@H](COP(=O)(O)O)Cc1ccccc1` [Example 25-7, Phosphoric acid mono-(2-{[1-(5-methyl-2-phenyl-2H-[1,2,3]triazol-4-yl)-methanoyl]-amino}-3-phenyl-propyl)ester] had a Kd in assay [1] of less than 1000 nM.

In the case of `O=C(N[C@@H](COP(=O)(O)O)Cc1ccccc1)c1ccco1` [Example 25-14, Phosphoric acid mono-{2-[(1-furan-2-yl-methanoyl)-amino]-3-phenyl-propyl}ester], the Kd in assay [1] is less than 10000 nM.

In the case of `COc1c(C(=O)N[C@@H](COP(=O)(O)O)Cc2ccccc2)csc1Cl` [Example 25-6, Phosphoric acid mono-(2{[1-(5-chloro-4-methoxy-thiophen-3-yl)-methanoyl]-amino}-3-phenyl-propyl)ester], the Kd in assay [1] is less than 1000 nM.

With `CN(C(=O)c1ccc2ccccc2c1)C(COP(=O)(O)O)Cc1ccccc1` (centres unmarked) [Example 58, Phosphoric acid mono-{[methyl-(1-naphthalen-2-yl-methanoyl)-amino]-phenyl-propyl}ester], in assay [1], the Kd is less than 10000 nM.

Turning to `O=C(N[C@@H](COP(=O)(O)O)Cc1ccccc1)c1ccc2ccccc2c1O` [Example 25-21], in assay [1], the Kd was less than 1000 nM.

Take `O=C(N[C@@H](COP(=O)(O)O)Cc1cccc(F)c1)c1ccc2nc[nH]c2c1` [Example 61, Phosphoric acid mono-[(R)-2-[(1-3H-benzoimidazol-5-yl-methanoyl)-amino]-3-(3-fluoro-phenyl)-propyl]ester]: in assay [2], the Ki was less than 1000 nM.

`CC(C)(C)C(=O)N[C@@H](COP(=O)(O)O)Cc1ccccc1` [Example 25-16, Phosphoric acid mono-[(R)-2-(2,2-dimethyl-propanoylamino)-3-phenyl-propyl]ester] returned a Ki in assay [2] of less than 1000 nM.

For the compound `O=C(N[C@@H](COP(=O)(O)O)Cc1ccccc1)c1cccc2ccccc12` [Example 25-10, Phosphoric acid mono-{2-[(1-naphthalen-1-yl-methanoyl)-amino]-3-phenyl-propyl}ester], in assay [1], the Kd was less than 1000 nM.

On to `O=C(N[C@@H](CCP(=O)(O)O)Cc1cccc(F)c1)c1cc2ccccc2s1` [Example 71, ([(R)-3-[(Benzo[b]thiophene-2-carbonyl)-amino]4-(3-fluoro-phenyl)-butyl]-phosphonic acid)], for which the Ki in assay [2] is less than 1000 nM.

In turn, `O=C(N[C@@H](COP(=O)(O)O)Cc1ccccc1)c1cnc2ccccc2n1` [Example 25-11, Phosphoric acid mono-{3-phenyl-2-[(1-quinoxalin-2-yl-methanoyl)-amino]-propyl}ester] registered a Kd in assay [1] of less than 1000 nM.

`NS(=O)(=O)OC[C@@H](Cc1ccccc1)NC(=O)c1ccc2ccccc2c1` [Example 72, Sulfamic acid 2-[(1-naphthalen-2-yl-methanoyl)-amino]-3-phenyl-propyl ester] returned a Kd in assay [1] of less than 100000 nM.

`O=C(Nc1ccccc1Oc1ccccc1)N[C@@H](COP(=O)(O)O)Cc1ccccc1` [Example 23b, Phosphoric acid mono-{2-[3-(2-phenoxy-phenyl)-ureido]-3-phenyl-propyl}ester] registered a Kd in assay [1] of less than 1000 nM.

Take `COc1ccc2cc(C(=O)N[C@@H](COP(=O)(O)O)Cc3ccccc3)ccc2c1` [Example 25-25, Phosphoric acid mono-(2-{[1-(6-methoxy-naphthalen-2-yl)-methanoyl]-amino}-3-phenyl-propyl)ester]: in assay [1], the Kd is less than 1000 nM.

In turn, `O=C(N[C@H](Cc1cccc(F)c1)CP(=O)(O)O)c1cc2ccccc2s1` [Example 98, [2-[(Benzo[b]thiophene-2-carbonyl)-amino]-3-(3-fluoro-phenyl)-propyl]-phosphonic acid] registered a Ki in assay [2] of less than 1000 nM.

In assay [2], `CN(C)c1cccc2c(S(=O)(=O)N[C@@H](COP(=O)(O)O)Cc3cccc(F)c3)cccc12` [Example 42, Phosphoric acid mono-[(R)-2-(5-dimethylamino-naphthalene-1-sulfonylamino)-3-(3-fluoro-phenyl)-propyl]ester] yielded a Ki of less than 10000 nM.

Turning to `O=C(N[C@@H](COP(=O)(O)O)Cc1ccccc1)c1cc2ccccc2[nH]1` [Example 25-18, Phosphoric acid mono-{2-[(1-1H-indol-2-yl-methanoyl)-amino]-3-phenyl-propyl}ester], the Kd in assay [1] was less than 1000 nM.

Regarding `O=C(N[C@@H](COP(=O)(O)O)Cc1ccccc1)c1ccc2ccccc2c1Br` [Example 25-24, Phosphoric acid mono-(2-{[1-(1-bromo-naphthalen-2-yl)-methanoyl]amino}-3-phenyl-propyl)ester], in assay [1], the Kd is less than 1000 nM.

Compound `O=C(OC(CCCc1ccccc1)CCCc1ccccc1)[C@@H]1CCCCN1C(=O)N[C@@H](COP(=O)(O)O)Cc1cccc(F)c1` [Example 79, (S)-1-[(R)-2-(3-Fluoro-phenyl)-1-phosphonooxymethyl-ethylcarbamoy]-piperidine-2-carboxylic acid 4-phenyl-1-(3-phenyl-propyl)-butyl ester] yielded a Ki in assay [2] of less than 1000 nM.

On to `CCN(CC)c1ccc2cc(C(=O)N[C@@H](COP(=O)(O)O)Cc3cccc(F)c3)c(=O)oc2c1` [Example 25-33, Phosphoric acid mono-[(R)-2-{[1-(diethylamino-oxo-2H-chromen-3-yl)-methanoyl]-amino}-3-(3-fluoro-phenyl)-propyl]ester], for which, in assay [2], the inhibition constant (Ki) was less than 1000 nM.

`CN(C)c1cccc2c(S(=O)(=O)N[C@@H](COP(=O)(Oc3ccccc3)Oc3ccccc3)Cc3cccc(F)c3)cccc12` [Example 86, Phosphoric acid (R)-2-(5-dimethylamino-naphthalene-1-sulfonylamino)-3-(3-fluoro-phenyl)-propyl ester diphenyl ester] came in with a Ki in assay [2] of less than 100000 nM.

As for `COc1cc(C)cc(NC(=O)N[C@@H](COP(=O)(O)O)Cc2ccccc2)c1` [Example 23c, Phosphoric acid mono-{2-[3-(3-methoxy-5-methyl-phenyl)-ureido]-3-phenyl-propyl}ester], in assay [1], the Kd was less than 1000 nM.

`COc1cc(NC(=O)N[C@@H](COP(=O)(O)O)Cc2ccccc2)cc(OC)c1` [Example 23d, Phosphoric acid mono-{2-[3-(3,5dimethoxy-phenyl)-ureido]-3-phenyl-propyl}ester] yielded a Kd in assay [1] of less than 1000 nM.

Compound `O=C(N[C@@H](COP(=O)(O)O)Cc1ccccc1)c1cc2ccccc2[s+]1[O-]` (stereo in doubt) [25-2′, Phosphoric acid mono-(2-{[1-(1-oxo-benzo[b]thiophen-2-yl)-methanoyl]-amino}-3-phenyl-propyl)ester] yielded an equilibrium dissociation constant (Kd) in assay [1] of less than 1000 nM.

The compound `O=C(N[C@@H](COP(=O)(O)O)Cc1ccccc1)c1ccc(Cl)c(Cl)c1` [Example 25-5, Phosphoric acid mono-(2-{[1-(3,4-dichloro-phenyl)-methanoyl]amino}-3-phenyl-propyl)ester] returned a Kd in assay [1] of less than 1000 nM.
